Counter-ions that a name gives are not always drawn.
Target: Sigma receptor
Experiment: Sigma receptor binding assay (3H-DTG, guinea pig brain crude membrane fraction)
Conditions: for IC50: inhibition of 3H-DTG binding to guinea pig brain crude membrane fraction, 25° C., 1 hour; for sigma receptor binding action: result in words, no value given
Experimental: Sigma Receptor Binding Assay
(1) Preparation of Receptor
Ten male guinea pigs (Crj, Hartley, from Charles River Japan, Inc.) (body weight: 234 g to 260 g) were decapitated, exsanguinated and died. The brain was immediately removed, homogenized with ten volumes of 50 mM Tris-HCl (pH 7.4) using a Teflon homogenizer and was centrifuged at a rate of 50000× g at 4° C. for 20 minutes. The washing procedure was repeated once more under the same conditions, and the resulting crude membrane fraction was subjected to the assay.
The filter paper was transferred to a vial for radioactivity measurement, mixed with 5 mL of a liquid scintillation cocktail (Atomlight, from PACKARD), and the radioactivity on the filter was determined by a liquid scintillation counter (Model 1500, from PACKARD) for 2 minutes. The specific binding and the non-specific binding in the absence of the test compound were determined in the same way as above except for using 50% DMSO solution instead of the test compound and using a 100 μM Haloperidol solution instead of the test compound, respectively.
(3) Determination of Inhibition
The inhibitions of the test compound at individual concentrations were determined from the ratio of the specific binding in the presence of the test compound to the specific binding in the absence thereof. The dose-response curve was regressed according to a logit-log model in which the ratio of the specific binding in the presence of the test compound to the specific binding in the absence thereof was subjected to logit transformation and plotted against the common logarithm value of each concentration.

SMILES | IC50 | sigma receptor binding action
CCOc1cc2c(cc1OCC)C(=O)C(CC1CCN(Cc3ccc(Cl)cc3)CC1)C2 (stereo not shown) [Example 13, 1-(4-chlorobenzyl)-4-[(5,6-diethoxy-1-indanon)-2-yl]methylpiperidine hydrochloride] | 1.6 nM | –
O=C1c2ccc(C3CCCCC3)cc2CC1CC1CCN(Cc2ccccc2)CC1 (stereo not shown) [Example 22, hydrochloride] | 1.3 nM | –
COc1cc2c(cc1OC)C(=O)C(=CC1CCN(Cc3ccccc3)CC1)C2.Cl [Example 25, 1-Benzyl-4-[(5,6-dimethoxy-1-indanon)-2-ylidene]methylpiperidine hydrochloride] | – | found to have a sigma receptor binding action
CCOc1cc2c(cc1OCC)C(=O)C(=CC1CCN(Cc3ccccc3)CC1)C2.Cl [Example 26, 1-Benzyl-4-[(5,6-diethoxy-1-indanon)-2-ylidene]methylpiperidine hydrochloride] | – | found to have a sigma receptor binding action
Cl.O=C1c2ccccc2CC1CC1CCN(Cc2ccccc2)CC1 (stereo not shown) [Example 27, 1-Benzyl-4-[(1-indanon)-2-yl]methylpiperidine hydrochloride] | 1.7 nM | found to have a sigma receptor binding action
COc1ccc2c(c1)CC(CC1CCN(Cc3ccccc3)CC1)C2=O.Cl (stereo not shown) [Example 28, 1-Benzyl-4-[(5-methoxy-1-indanon)-2-yl]methylpiperidine hydrochloride] | 2.3 nM | found to have a sigma receptor binding action
CCOc1cc2c(cc1OC)C(=O)C(CC1CCN(Cc3ccccc3)CC1)C2.Cl (stereo not shown) [Example 29, 1-Benzyl-4-[(5-ethoxy-6-methoxy-1-indanon)-2-yl]methylpiperidine hydrochloride] | – | found to have a sigma receptor binding action
CCOc1cc2c(cc1OCC)C(=O)C(CC1CCN(Cc3ccccc3)CC1)C2.Cl (stereo not shown) [Example 30, 1-Benzyl-4-[(5,6-diethoxy-1-indanon)-2-yl]methylpiperidine hydrochloride] | 3.7 nM | found to have a sigma receptor binding action
CCCOc1cc2c(cc1OCCC)C(=O)C(CC1CCN(Cc3ccccc3)CC1)C2.Cl (stereo not shown) [Example 31, 1-Benzyl-4-[[5,6-di(1-propyloxy)-1-indanon)-2-yl]methylpiperidine hydrochloride] | – | found to have a sigma receptor binding action
COc1cc2c(cc1OC)C(=O)C(CCC1CCN(Cc3ccccc3)CC1)C2.Cl (stereo not shown) [Example 32, 1-Benzyl-4-[2-[(5,6-dimethoxy-1-indanon)-2-yl]ethyl]piperidine hydrochloride] | – | found to have a sigma receptor binding action
COc1cc2c(cc1OC)C(=O)C(CCCC1CCN(Cc3ccccc3)CC1)C2.Cl (stereo not shown) [Example 33, 1-Benzyl-4-[3-[(5,6-dimethoxy-1-indanon)-2-yl]propyl]piperidine hydrochloride] | 7.6 nM | found to have a sigma receptor binding action
COc1cc2c(cc1OC)C(=O)C(CC1CCN(Cc3cccc(F)c3)CC1)C2.Cl (stereo not shown) [Example 34, 1-(3-Fluorobenzyl)-4-[(5,6-dimethoxy-1-indanon)-2-yl]methylpiperidine hydrochloride] | – | found to have a sigma receptor binding action
COc1cc2c(cc1OC)C(=O)C(CC1CCN(Cc3cccc(C)c3)CC1)C2.Cl (stereo not shown) [Example 35, 1-(3-Methylbenzyl)-4-[(5,6-dimethoxy-1-indanon)-2-yl]methylpiperidine hydrochloride] | – | found to have a sigma receptor binding action
COc1cc2c(cc1OC)C(=O)C(CC1CCN(CC3CCCCC3)CC1)C2.Cl (stereo not shown) [Example 36, 1-Cyclohexylmethyl-4-[(5,6-dimethoxy-1-indanon)-2-yl]methylpiperidine hydrochloride] | – | found to have a sigma receptor binding action
CCOc1cc2c(cc1OCC)C(=O)C(F)(CC1CCN(Cc3cccc(F)c3)CC1)C2 (stereo not shown) [Example 41, 1-(3-fluorobenzyl)-4-[(5,6-diethoxy-2-fluoro-1-indanon)-2-yl]methylpiperidine hydrochloride] | 3 nM | –
CCOc1cc2c(cc1OCC)C(=O)C(F)(CC1CCN(Cc3ccccc3Cl)CC1)C2 (stereo not shown) [Example 43, 1-(2-chlorobenzyl)-4-[(5,6-diethoxy-2-fluoro-1-indanon)-2-yl]methylpiperidine hydrochloride] | 1.5 nM | –

SMILES | IC50 | sigma receptor binding action
CCOc1cc2c(cc1OCC)C(=O)C(F)(CC1CCN(Cc3ccc(C)cc3)CC1)C2 (stereo not shown) [Example 48, 1-(4-methylbenzyl)-4-[(5,6-diethoxy-2-fluoro-1-indanon)-2-yl]methylpiperidine hydrochloride] | 2.8 nM | –
CCOc1cc2c(cc1OCC)C(=O)C(F)(CC1CCN(CC3CCCCCC3)CC1)C2 (stereo not shown) [Example 51, 1-cycloheptylmethyl-4-[(5,6-diethoxy-2-fluoro-1-indanon)-2-yl]methylpiperidine hydrochloride] | 1.1 nM | –
CCOc1cc2c(cc1OCC)C(=O)C(F)(CC1CCN(CC3CCCCCCC3)CC1)C2 (stereo not shown) [Example 52, 1-cyclooctylmethyl-4-[(5,6-diethoxy-2-fluoro-1-indanon)-2-yl]methylpiperidine hydrochloride] | 1.1 nM | –
Cl.O=C1c2ccccc2CC1(F)CC1CCN(Cc2ccccc2)CC1 (stereo not shown) [Example 54, 1-Benzyl-4-[(2-fluoro-1-indanon)-2-yl]methylpiperidine hydrochloride] | – | found to have a sigma receptor binding action
COc1ccc2c(c1)CC(F)(CC1CCN(Cc3ccccc3)CC1)C2=O.Cl (stereo not shown) [Example 55, 1-Benzyl-4-[(5-methoxy-2-fluoro-1-indanon)-2-yl]methylpiperidine hydrochloride] | – | found to have a sigma receptor binding action
COc1cc2c(cc1OC)C(=O)C(F)(CC1CCN(Cc3ccccc3)CC1)C2.Cl (stereo not shown) [Example 56, 1-Benzyl-4-[(5,6-dimethoxy-2-fluoro-1-indanon)-2-yl]methylpiperidine hydrochloride] | – | found to have a sigma receptor binding action
CCOc1cc2c(cc1OCC)C(=O)C(F)(CC1CCN(Cc3ccccc3)CC1)C2.Cl (stereo not shown) [Example 57, 1-Benzyl-4-[(5,6-diethoxy-2-fluoro-1-indanon)-2-yl]methylpiperidine hydrochloride] | – | found to have a sigma receptor binding action
CCCOc1cc2c(cc1OCCC)C(=O)C(F)(CC1CCN(Cc3ccccc3)CC1)C2.Cl (stereo not shown) [Example 58, 1-Benzyl-4-[[5,6-di(1-propyloxy)-2-fluoro-1-indanon]-2-yl]methylpiperidine hydrochloride] | 1.3 nM | found to have a sigma receptor binding action
COc1cc2c(cc1OC)C(=O)C(F)(C1CCN(Cc3ccccc3)CC1)C2.Cl (stereo not shown) [Example 59, 1-Benzyl-4-[(5,6-dimethoxy-2-fluoro-1-indanon)-2-yl]piperidine] | – | found to have a sigma receptor binding action
COc1cc2c(cc1OC)C(=O)C(F)(CCC1CCN(Cc3ccccc3)CC1)C2 (stereo not shown) [Example 60, 1-Benzyl-4-[2-[(5,6-dimethoxy-2-fluoro-1-indanon)-2-yl]ethyl]piperidine] | – | found to have a sigma receptor binding action
COc1cc2c(cc1OC)C(=O)C(F)(CCCC1CCN(Cc3ccccc3)CC1)C2.Cl (stereo not shown) [Example 61, 1-Benzyl-4-[3-[(5,6-dimethoxy-2-fluoro-1-indanon)-2-yl]propyl]piperidinepiperidine hydrochloride] | – | found to have a sigma receptor binding action
COc1cc2c(cc1OC)C(=O)C(F)(CC1CCN(Cc3ccccc3F)CC1)C2.Cl (stereo not shown) [Example 62, 1-(2-Fluorobenzyl)-4-[(5,6-dimethoxy-2-fluoro-1-indanon)-2-yl]methylpiperidine hydrochloride] | – | found to have a sigma receptor binding action
COc1cc2c(cc1OC)C(=O)C(F)(CC1CCN(Cc3cccc(F)c3)CC1)C2.Cl (stereo not shown) [Example 63, 1-(3-Fluorobenzyl)-4-[(5,6-dimethoxy-2-fluoro-1-indanon)-2-yl]methylpiperidine hydrochloride] | – | found to have a sigma receptor binding action
COc1cc2c(cc1OC)C(=O)C(F)(CC1CCN(Cc3ccc(F)cc3)CC1)C2.Cl (stereo not shown) [Example 64, 1-(4-Fluorobenzyl)-4-[(5,6-dimethoxy-2-fluoro-1-indanon)-2-yl]methylpiperidine hydrochloride] | – | found to have a sigma receptor binding action
COc1cc2c(cc1OC)C(=O)C(F)(CC1CCN(Cc3cccc(C)c3)CC1)C2.Cl (stereo not shown) [Example 65, 1-(3-Methylbenzyl)-4-[(5,6-dimethoxy-2-fluoro-1-indanon)-2-yl]methylpiperidine hydrochloride] | – | found to have a sigma receptor binding action
COc1cc2c(cc1OC)C(=O)C(F)(CC1CCN(CC3CCCCC3)CC1)C2.Cl (stereo not shown) [Example 66, 1-Cyclohexylmethyl-4-[(5,6-dimethoxy-2-fluoro-1-indanon)-2-yl]methylpiperidine hydrochloride] | – | found to have a sigma receptor binding action

From US20050107432A1, “Sigma receptor binder containing indanone derivative” (priority 2002, published 2005)
